US11407719B2, “Anti-inflammatory agents” (Resverlogix Corp., priority 2009, dated 2022)

Assays:
hIL-6 mRNA = assay: Quantification of hIL-6 mRNA; type: cell-based, human; parameters: key: Active: an active compound is one that causes a ≥20% inhibition in IL-6 mRNA at a concentration less than or equal to 10 μM; settings: IL-6 mRNA by real-time PCR; differentiated U937 cells, 1 h pretreatment, lipopolysaccharide stimulation 3 h; concentration ≤10 μM
Procedure, shortened: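 U937 cells, differentiated for 3 days, were pretreated with compound for 1 h and then stimulated with E. coli LPS for 3 h at 37 °C. IL-6 mRNA was quantified by one-step qRT-PCR, with Ct normalized to an internal control, and fold induction was expressed relative to control.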

VCAM-1 mRNA = assay: Quantification of hVCAM mRNA; type: cell-based, human; parameters: key: Active: an active compound is one that causes a ≥20% inhibition in VCAM-1 mRNA at a concentration less than or equal to 10 μM; -1 mRNA at a concentration less than or equal to 10 μM; settings: VCAM-1 mRNA by real-time PCR; HUVECs, 1 h pretreatment, tumor necrosis factor-α stimulation 24 h; concentration ≤10 μM
Procedure, shortened: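 HUVECs were pretreated 1 h with compound, then stimulated with TNF-α and harvested 24 h later. Isolated mRNA went into one-step qRT-PCR. hVCAM Ct values were normalized to an internal control and expressed as fold induction relative to control.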

| Compound | melting point | Inhibition of IL-6 expression (hIL-6 mRNA) | Inhibition of VCAM-1 expression (VCAM-1 mRNA) |
| --- | --- | --- | --- |
| COCCOc1cc(OCCOC)c2c(=O)[nH]c(-c3cc(C)nc(C)c3)nc2c1 [2-(2,6-Dimethylpyridin-4-yl)-5,7-bis(2-methoxyethoxy)quinazolin-4(3H)-one] | 149.8 to 151.4 °C | Active | Active |
| COc1cc(OCCN2CCCC2)cc2nc(-c3cc(C)nc(C)c3)[nH]c(=O)c12 [2-(2,6-Dimethylpyridin-4-yl)-5-methoxy-7-(2-(pyrrolidin-1-yl)ethoxy)quinazolin-4(3H)-one] | 227 to 229 °C | Active | Inactive |
| COc1cc(OCCOc2ccccc2)cc2nc(-c3cc(C)nc(C)c3)[nH]c(=O)c12 [2-(2,6-Dimethylpyridin-4-yl)-5-methoxy-7-(2-phenoxyethoxy)quinazolin-4(3H)-one] | 223 to 224 °C | Active | Active |
| Cc1cc(-c2nc3ccc(CCN4CCCC4)cc3c(=O)[nH]2)cc(C)n1 [2-(2,6-Dimethylpyridin-4-yl)-6-(2-(pyrrolidin-1-yl)ethyl)quinazolin-4(3H)-one] | 212.3 to 213.2 °C | Active | Active |
| Cc1cc(-c2nc3ccc(CCN4CCOCC4)cc3c(=O)[nH]2)cc(C)n1 [2-(2,6-Dimethylpyridin-4-yl)-6-(2-morpholinoethyl)quinazolin-4(3H)-one] | 248.5 to 249.3 °C | Active | Inactive |
| COc1cc(OCCOC(C)C)cc2nc(-c3cc(C)nc(C)c3)[nH]c(=O)c12 [2-(2,6-Dimethylpyridin-4-yl)-7-(2-isopropoxyethoxy)-5-methoxyquinazolin-4(3H)-one] | 188 to 189 °C | Active | Active |
| COc1cc(OC)c2c(=O)[nH]c(-c3ccc(Cc4nnn[nH]4)cc3)nc2c1 [2-(4-((1H-Tetrazol-5-yl)methyl)phenyl)-5,7-dimethoxyquinazolin-4(3H)-one] | 295 to 296 °C | Active |  |
| COCCOc1cc(OC)c2c(=O)[nH]c(-c3ccc(N4C[C@@H](C)N(C(C)=O)[C@@H](C)C4)cc3)nc2c1 [2-(4-((3R,5S)-4-Acetyl-3,5-dimethylpiperazin-1-yl)phenyl)-5-methoxy-7-(2-methoxyethoxy)quinazolin-4(3H)-one] | 225 to 227 °C | Active |  |
| COc1cc(OC)c2c(=O)[nH]c(-c3ccc(OCCN4CCCC4)cc3)nc2c1 [5,7-Dimethoxy-2-(4-(2-(pyrrolidin-1-yl)ethoxy)phenyl)quinazolin-4(3H)-one] | 226 to 227 °C | Active |  |
| Cc1cc(-c2nc3c(Cl)cccc3c(=O)[nH]2)cc(C)c1OCCN1CCCC1 [8-Chloro-2-(3,5-dimethyl-4-(2-(pyrrolidin-1-yl)ethoxy)phenyl)quinazolin-4(3H)-one] | 216 to 217 °C | Active |  |
| COc1cc(OC)c2c(=O)[nH]c(-c3cc(C)c(OCCN4CC(NC(C)=O)C4)c(C)c3)nc2c1 [N-(1-(2-(4-(5,7-Dimethoxy-4-oxo-3,4-dihydroquinazolin-2-yl)-2,6-dimethylphenoxy)ethyl)azetidin-3-yl)acetamide] | 111.8 to 113.6 °C | Active |  |
